According to ChEMBL document CHEMBL1201862, “PubChem BioAssay data set” (2004):
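Step 1: Grow cells in 96-well plates. Step 2: Expose to compound for 48 hours at 5 concentrations. Step 3: Interpolate endpoints linearly; if unreached, use highest concentration. GI50 = concentration required for 50% inhibition of growth.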 Calls of active or inactive are those of the source. Rule as the data show it: active = GI50 up to about 1.1 µM and inactive = higher.

Legend:
Assay in all cases: NCI anticancer screen, dose series, 48 h
A549 = system: A549
SR = system: SR
UO-31 = system: UO-31
SW-620 = system: SW-620
PC-3 = system: PC-3
RXF 393 = system: RXF 393
OVCAR-5 = system: OVCAR-5
HCT-116 = system: HCT-116
ACHN = system: ACHN
MCF7 = system: MCF7
HOP-62 = system: HOP-62
M14 = system: M14
KM12 = system: KM12
MDA-MB-435 = system: MDA-MB-435
HCT-15 = system: HCT-15
MDA-N = system: MDA-N
MDA-MB-231 = system: MDA-MB-231
TK-10 = system: TK-10
HOP-92 = system: HOP-92
SK-MEL-5 = system: SK-MEL-5
SF-539 = system: SF-539
CCRF-CEM = system: CCRF-CEM
SF-268 = system: SF-268
BT-549 = system: BT-549
HT-29 = system: HT-29
HL-60 = system: HL-60
Malme-3M = system: Malme-3M
HCC 2998 = system: HCC 2998
OVCAR-3 = system: OVCAR-3
K562 = system: K562
NCI/ADR-RES = system: NCI/ADR-RES
T47D = system: T47D
NCI-H226 = system: NCI-H226
NCI-H460 = system: NCI-H460
MOLT-4 = system: MOLT-4
OVCAR-8 = system: OVCAR-8
EKVX = system: EKVX
A498 = system: A498
SK-OV-3 = system: SK-OV-3
SK-MEL-28 = system: SK-MEL-28
SN12C = system: SN12C
SF-295 = system: SF-295
NCI-H23 = system: NCI-H23
786-0 = system: 786-0
UACC-62 = system: UACC-62
SNB-19 = system: SNB-19
IGROV-1 = system: IGROV-1
Hs-578T = system: Hs-578T
U-251 = system: U-251
DU-145 = system: DU-145
CAKI-1 = system: CAKI-1
SK-MEL-2 = system: SK-MEL-2
COLO 205 = system: COLO 205
RPMI-8226 = system: RPMI-8226
OVCAR-4 = system: OVCAR-4
SNB-75 = system: SNB-75
UACC-257 = system: UACC-257
LOX IMVI = system: LOX IMVI

In the case of `CC1(C)OC[C@H](COCOP2(=O)Oc3ccc4ccccc4c3-c3c(ccc4ccccc34)O2)O1`, the GI50 (A549) is reported as 21.5 µM (inactive), the GI50 (SR) is reported as 16.7 µM (inactive) and the GI50 (UO-31) is reported as 18.3 µM (inactive). The GI50 (SW-620) was 15.3 µM (inactive), the GI50 (PC-3) was 14.2 µM (inactive) and the GI50 (RXF 393) was > 10 µM (inactive). For the same compound, the GI50 (OVCAR-5) was 17.8 µM (inactive), the GI50 (HCT-116) was 15 µM (inactive) and the GI50 (ACHN) was 18 µM (inactive). The GI50 (MCF7) was 3.48 µM (inactive), the GI50 (HOP-62) was 21.4 µM (inactive) and the GI50 (M14) was 16.3 µM (inactive). The GI50 (KM12) was 15.5 µM (inactive), the GI50 (MDA-MB-435) was 13.7 µM (inactive) and the GI50 (HCT-15) was 15.3 µM. For the same compound, the GI50 (MDA-N) was 13.5 µM (inactive), the GI50 (MDA-MB-231) was 15.7 µM (inactive) and the GI50 (TK-10) was 20.2 µM (inactive). The GI50 (HOP-92) was 14.6 µM (inactive), the GI50 (SK-MEL-5) was 24.4 µM (inactive) and the GI50 (SF-539) was 18.8 µM (inactive). The GI50 (CCRF-CEM) was 27.6 µM (inactive), the GI50 (SF-268) was 16 µM (inactive) and the GI50 (BT-549) was 16.6 µM (inactive). The GI50 (HT-29) was 16.4 µM (inactive), the GI50 (HL-60) was 17.1 µM (inactive) and the GI50 (Malme-3M) was 21.3 µM (inactive). The GI50 (HCC 2998) was 16.9 µM (inactive), the GI50 (OVCAR-3) was 15.3 µM (inactive) and the GI50 (K562) was 21.8 µM (inactive). The GI50 (NCI/ADR-RES) was 18.3 µM (inactive), the GI50 (T47D) was 18.3 µM (inactive) and the GI50 (NCI-H226) was 18.7 µM (inactive). For the same compound, the GI50 (NCI-H460) was 16.7 µM (inactive), the GI50 (MOLT-4) was 15 µM (inactive) and the GI50 (OVCAR-8) was 25.2 µM (inactive). The GI50 (EKVX) was > 10 µM (inactive), the GI50 (A498) was 16.9 µM (inactive) and the GI50 (SK-OV-3) was 23.8 µM (inactive). The GI50 (SK-MEL-28) was 13.3 µM (inactive), the GI50 (SN12C) was 16.4 µM (inactive) and the GI50 (SF-295) was 17.6 µM (inactive). For the same compound, the GI50 (NCI-H23) was 15.6 µM (inactive), the GI50 (786-0) was 35.5 µM (inactive) and the GI50 (UACC-62) was 17.2 µM (inactive). The GI50 (SNB-19) was 19.1 µM (inactive), the GI50 (IGROV-1) was 23 µM (inactive) and the GI50 (Hs-578T) was 47.5 µM (inactive). For the same compound, the GI50 (U-251) was 18 µM (inactive) and the GI50 (DU-145) was 17.6 µM (inactive).

`O=CC(O)C(O)C(O)C(O)COC(=O)NCCCCC(=O)C(F)(F)C(F)(F)C(F)(F)C(F)(F)C(F)(F)C(F)(F)C(F)(F)F` (stereo not given) was tested, and the GI50 (A549) was 28.8 µM (inactive), the GI50 (SR) was 28.2 µM (inactive) and the GI50 (CAKI-1) was 49.8 µM (inactive). The GI50 (UO-31) was > 100 µM (inactive), the GI50 (SW-620) was 19.9 µM (inactive) and the GI50 (PC-3) was 14.3 µM (inactive). For the same compound, the GI50 (RXF 393) was 18.3 µM (inactive), the GI50 (OVCAR-5) was 17.2 µM (inactive) and the GI50 (HCT-116) was 18 µM (inactive). The GI50 (ACHN) was 30.2 µM (inactive), the GI50 (MCF7) was 19.1 µM (inactive) and the GI50 (SK-MEL-2) was 27.6 µM (inactive). The GI50 (COLO 205) was 30.5 µM (inactive), the GI50 (HOP-62) was 23.6 µM (inactive) and the GI50 (RPMI-8226) was 29.9 µM (inactive). For the same compound, the GI50 (M14) was 23.7 µM (inactive), the GI50 (KM12) was 19.1 µM (inactive) and the GI50 (MDA-MB-435) was 24.2 µM (inactive). For the same compound, the GI50 (HCT-15) was 50.2 µM, the GI50 (MDA-N) was 27.8 µM (inactive) and the GI50 (MDA-MB-231) was 20 µM (inactive). The GI50 (OVCAR-4) was 51.8 µM (inactive), the GI50 (TK-10) was 70.5 µM (inactive) and the GI50 (HOP-92) was 13.2 µM (inactive). The GI50 (SK-MEL-5) was 23.7 µM (inactive), the GI50 (SF-539) was 19.8 µM (inactive) and the GI50 (CCRF-CEM) was 18.4 µM (inactive). For the same compound, the GI50 (SF-268) was 24.8 µM (inactive), the GI50 (BT-549) was 16.1 µM (inactive) and the GI50 (HT-29) was 32.7 µM (inactive). For the same compound, the GI50 (HL-60) was 27.4 µM (inactive), the GI50 (Malme-3M) was > 100 µM (inactive) and the GI50 (HCC 2998) was 24.5 µM (inactive). For the same compound, the GI50 (OVCAR-3) was 47 µM (inactive), the GI50 (K562) was 11.8 µM (inactive) and the GI50 (NCI/ADR-RES) was > 100 µM (inactive). The GI50 (SNB-75) was 22.9 µM (inactive), the GI50 (T47D) was > 100 µM (inactive) and the GI50 (NCI-H460) was 26.9 µM (inactive). For the same compound, the GI50 (MOLT-4) was 10.7 µM (inactive), the GI50 (A498) was 20.7 µM (inactive) and the GI50 (SK-OV-3) was 21.7 µM (inactive). The GI50 (SK-MEL-28) was 43.7 µM (inactive), the GI50 (SN12C) was 32.4 µM (inactive) and the GI50 (SF-295) was 23.2 µM (inactive). The GI50 (NCI-H23) was 32.9 µM (inactive), the GI50 (786-0) was 32.7 µM (inactive) and the GI50 (UACC-62) was 15.9 µM (inactive). For the same compound, the GI50 (SNB-19) was 16 µM (inactive), the GI50 (UACC-257) was > 10 µM (inactive) and the GI50 (LOX IMVI) was 15.3 µM (inactive). For the same compound, the GI50 (IGROV-1) was 29.7 µM (inactive), the GI50 (Hs-578T) was 22.4 µM (inactive) and the GI50 (U-251) was > 10 µM (inactive). The GI50 (DU-145) was 47.6 µM (inactive).
